Patent US5608047A, “Cyclic ADP-ribose and analogs” (Wisconsin Alumni Research Foundation, priority 1995, dated 1997)

System: rat brain microsomes
Assay: Ca2+ release measurement with fluo-3 in rat brain microsomes
Format: biochemical
Conditions: for EC50: extramicrosomal Ca2+ by fluo-3, read-out: ED50 of Ca^2+ release
Description: Ca^2+ release measurements as follows: Rat brain microsomes were prepared on the day of the experiment. Loading of the microsomes with Ca^2+ took approximately 30 minutes at 24° C. and was used at a protein concentration of 0.5 mg/ml. The free Ca^2+ used for Ca^2+ loading was 0.5 to 2 uM and was present in the loading solution as a contaminant. Ca^2+ uptake and release was followed by measuring extramicrosomal Ca^2+ using fluo-3 (Cal-Biochem) (1 uM). Fluorescence intensity of fluo-3 was measured at excitation and emission wavelength of 490 and 535 nm respectively. Fluorimetry was performed on 500 ul aliquots of microsomes using a Perkin Elmer MF-3. Additions were made in volumes of 1-5 ul and all chemicals were added in incubation medium containing 10 uM EGTA. Ca^2+ traces were calibrated by adding Ca^2+ standard solution.
Ca^2+ release measurements were done as outlined in Example 1.

Row | Compound | Ca^2+ release caused by the substance | EC50 [nM] | other results
1 | NC(=O)c1ccc[n+]([C@@H]2O[C@H](COP(=O)([O-])OP(=O)(O)OC[C@H]3O[C@@H](n4cnc5c(N)ncnc54)[C@H](O)[C@@H]3O)[C@@H](O)[C@H]2O)c1 [β-NAD] | caused no Ca^2+ release |  | 
2 | heparin |  |  | effect on Ca^2+ release induced by IP3 (release induced by IP3): blocked Ca^2+ release induced by IP3
3 | ryanodine |  |  | effect on Ca^2+ release induced by cADPR (release induced by cADPR): inhibited release of Ca^2+ by cADPR
4 | N=c1c2ncn3c2ncn1[C@@H]1O[C@H](COP(=O)(O)OP(=O)(O)OP(=O)(O)OC[C@H]2O[C@@H]3[C@H](O)[C@@H]2O)[C@@H](O)[C@H]1O [cATPR, cycle ATP-ribose] |  | 5 | potency relative to cADPR (times more potent) (ratio of ED50 values): approximately 20 times
5 | N=c1c2ncn3c2ncn1[C@@H]1O[C@H](COP(=O)(O)OP(=O)(O)OC[C@H]2O[C@@H]3[C@H](O)[C@@H]2O)[C@@H](O)[C@H]1O [cADPR, cyclic ADP-ribose] |  | 100 | 
6 | Nc1ncnc2c1ncn2[C@@H]1O[C@H](COP(=O)(O)OP(=O)(O)OC[C@H]2OC(O)[C@H](O)[C@@H]2O)[C@@H](O)[C@H]1O (stereo partly shown) [ADPR, ADP-ribose] | caused no Ca^2+ release |  | 
